{"source": "patent US20240108734A1", "about": "“METHODS FOR TREATING AND AMELIORATING CANCER” (The Regents of the University of California, priority 2021, published 2024)", "test_system": "MF CD34+ cells (pre-LSC)", "experiment": "SL/M2 stromal co-culture, clonogenic survival and self-renewal (replating) assays, myelofibrosis", "type": "cell-based, human", "conditions": "imetelstat only (5 uM in b222), compared with normal bone marrow; for self-renewal capacity (replating) of MF CD34+ cells (pre-LSC): p<0.001; for survival of MF CD34+ cells (pre-LSC): p<0.01", "source_text": "Lentiviral human wild-type and mutant ADAR1^E912A (pCDH-EF1-T2A-copGFP) and shRNA targeting ADAR1 were produced according to published protocols^27,37. In Vitro MPN-SPC and LSC Survival and Self-Renewal Assays with Imetelstat To assess MPN progenitor and LSC survival and self-renewal in vitro, human primary CD34^+ cells selected from BC CML (n=5), MF (n=9) or age matched normal bone marrow (a-NBM, n=4) were co-cultured with SL/M2 stromal cells for 7-14 days, and then treated with imetelstat alone or combined with dasatinib for BC CML or Pacritinib for MF. Colony forming and replating assays were performed as previously described^32.\nTo assess MPN progenitor and LSC survival and self-renewal in vitro, human primary CD34^+ cells selected from BC CML (n=5), MF (n=9) or age matched normal bone marrow (a-NBM, n=4) were co-cultured with SL/M2 stromal cells for 7-14 days, and then treated with Imetelstat alone or combined with dasatinib for BC CML or Pacritinib for MF. Colony forming and replating assays were performed as previously described^32,33.\nFIG. 3A. A schematic illustration of SL/M2 stromal co-cultures established to quantify in vitro MPN-SPC and LSC survival and self-renewal. Human primary CD34^+ cells selected from BC CML (n=5), MF (n=9) or age matched normal bone marrow (a-NBM, n=4) were co-cultured with SL/M2 stromal cells for 7-14 days. While BC CML stromal co-cultures were treated with increasing doses of imetelstat with or without dasatinib, MF stromal co-cultures were treated with imetelast with or without pacritinib.\nFIG. 3D. Imetelstat was used at concentrations ranging from 1 to 10 μM to treat aged normal bone marrow (aNBM, n=4, dark blue) compared with myelofibrosis (MF, light blue, n=9) in stromal co-cultures followed by clonogenic survival (upper panel) and self-renewal (lower panel) assays (**p<0.01, ***p<0.001).\nFIG. 3E. Imetelstat was used at concentrations ranging from 1 to 10 μM alone or in combination with pacritinib (5 nM) to treat aged normal bone marrow (a-NBM, n=4, blue) compared with MF (green, n=9) in stromal co-cultures followed by clonogenic survival (upper panel) and self-renewal (lower panel) assays.", "data": [{"substance": "imetelstat", "values": [{"measurement": "self-renewal capacity (replating) of MF CD34+ cells (pre-LSC)", "result": "decrease"}, {"measurement": "self-renewal capacity (replating) of MF CD34+ cells (pre-LSC)", "setting": "listed as Imetelstat", "result": "significantly inhibited"}, {"measurement": "survival of MF CD34+ cells (pre-LSC)", "result": "decrease"}, {"measurement": "survival of MF CD34+ cells (pre-LSC)", "setting": "listed as Imetelstat", "result": "significantly inhibited"}]}]}
